# Results taken from ChEMBL document CHEMBL1136186, “Microcystin analogues comprised only of Adda and a single additional amino acid retain moderate activity as PP1/PP2A inhibitors” (Bioorg Med Chem Lett, 2003).
# *1 amine or outer side, *2 acyl side, *3 side chain or, on linkers, in order; H or OH if unused. Where a SMILES comes first, the peptide text is derived from it. Bridges are numbered along the chain shown (N, C = ends). [ ]: non-standard residue; d: D form. Adda = CO[C@@H](Cc1ccccc1)[C@@H](C)/C=C(C)/C=C/[C@H](N[*:1])[C@H](C)C(=O)[*:2]; dAsp(3S-Me) = C[C@H](C(=O)[*:3])[C@@H](N[*:1])C(=O)[*:2]; d(γGlu) = O=C(O)[C@@H](CCC(=O)[*:2])N[*:1]; NMeDha = C=C(NC)C(=O)O
# Tests used:
# [1] = biological target: T1, Serine/threonine-protein phosphatase 2A catalytic subunit alpha isoform (Bos taurus, UniProt P67774); assay: Inhibitory concentration against protein phosphatase 2A (PP2A) using pNPP assay; set-up: species or system Oryctolagus cuniculus
# T1 sequence (P67774 whole entry, canonical isoform): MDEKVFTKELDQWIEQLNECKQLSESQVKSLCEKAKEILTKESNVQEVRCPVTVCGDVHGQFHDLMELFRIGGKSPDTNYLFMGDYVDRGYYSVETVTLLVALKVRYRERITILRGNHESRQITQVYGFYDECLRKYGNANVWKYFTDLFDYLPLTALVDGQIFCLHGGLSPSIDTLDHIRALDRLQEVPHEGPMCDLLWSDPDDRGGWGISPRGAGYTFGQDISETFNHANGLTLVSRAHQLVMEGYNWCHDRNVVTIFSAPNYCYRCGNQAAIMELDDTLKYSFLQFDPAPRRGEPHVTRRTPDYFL
# Oryctolagus cuniculus = species on record: Oryctolagus cuniculus; assay: Ratio of inhibition of PP1 to that of inhibition of PP2A using phosphorylase-a assay
# [2] = biological target: T1, Serine/threonine-protein phosphatase 2A catalytic subunit alpha isoform; assay: Inhibitory concentration against protein phosphatase 2A (PP2A) using phosphorylase-a assay; set-up: species or system Oryctolagus cuniculus
SMILES,IC50 [1] [µM],Ratio (Oryctolagus cuniculus),IC50 [2] [µM]
CO[C@@H](Cc1ccccc1)[C@@H](C)/C=C(C)/C=C/[C@H](NC(C)=O)[C@H](C)C(=O)N1C[C@H](C(=O)O)C[C@@H]1C(=O)O,> 100,,
CC(=O)N[C@@H](/C=C/C(C)=C/CCCc1ccccc1)[C@H](C)C(=O)N[C@H](C)C(=O)O,> 100,,
CC(=O)N[C@@H](/C=C/C(C)=C/c1ccccc1Cc1ccccc1)[C@H](C)C(=O)N[C@H](C)C(=O)O,> 100,,
CO[C@@H](Cc1ccccc1)[C@@H](C)/C=C(C)/C=C/[C@H](NC(C)=O)[C@H](C)C(=O)N1[C@@H](C(=O)O)CC[C@H]1C(=O)O,10,> 5,
CO[C@@H](Cc1ccccc1)[C@@H](C)/C=C(C)/C=C/[C@H](NC(C)=O)[C@H](C)C(=O)N1CCC[C@H]1C(=O)O,> 100,,
CO[C@@H](Cc1ccccc1)[C@@H](C)/C=C(C)/C=C/[C@H](NC(C)=O)[C@H](C)C(=O)N1C[C@H](O[Si](C(C)C)(C(C)C)C(C)C)C[C@@H]1C(=O)O,> 63,> 2,
CO[C@@H](Cc1ccccc1)[C@@H](C)/C=C(C)/C=C/[C@H](NC(C)=O)[C@H](C)C(=O)N[C@H](C)C(=O)O,7,6,0.16
CO[C@@H](Cc1ccccc1)[C@@H](C)/C=C(C)/C=C/[C@H](NC(C)=O)[C@H](C)C(=O)N1C[C@H](C(=O)O)C[C@H]1C(=O)O,> 100,,
CO[C@@H](Cc1ccccc1)[C@@H](C)/C=C(C)/C=C/[C@H](NC(C)=O)[C@H](C)C(=O)N1C[C@@H](C(=O)O)C[C@@H]1C(=O)O,> 100,,
COC(=O)[C@@H]1CCCN1C(=O)[C@@H](C)[C@H](/C=C/C(C)=C/[C@H](C)[C@H](Cc1ccccc1)OC)NC(C)=O,> 100,,
COC(=O)[C@H]1CCCN1C(=O)[C@@H](C)[C@H](/C=C/C(C)=C/[C@H](C)[C@H](Cc1ccccc1)OC)NC(C)=O,> 100,,
CO[C@@H](Cc1ccccc1)[C@@H](C)/C=C(C)/C=C/[C@H](NC(C)=O)[C@H](C)C(=O)N1CCC[C@@H]1C(=O)O,> 25,2,
CO[C@@H](Cc1ccccc1)[C@@H](C)/C=C(C)/C=C/[C@H](NC(C)=O)[C@H](C)C(=O)NCC(=O)O,,1.11,0.5
CO[C@@H](Cc1ccccc1)[C@@H](C)/C=C(C)/C=C/[C@H](NC(C)=O)[C@H](C)C(=O)N1[C@H](C(=O)O)CC[C@H]1C(=O)O,> 39,> 1.3,
CO[C@@H](Cc1ccccc1)[C@@H](C)/C=C(C)/C=C/[C@H](NC(C)=O)[C@H](C)C(=O)N1CCCC1,> 100,,
CO[C@@H](Cc1ccccc1)[C@@H](C)/C=C(C)/C=C/[C@H](NC(C)=O)[C@H](C)C(=O)N[C@@H](C)C(=O)O,,1.22,7.8
CO[C@@H](Cc1ccccc1)[C@@H](C)/C=C(C)/C=C/[C@H](NC(C)=O)[C@H](C)C(=O)N(CC(=O)O)CC(=O)O,> 100,,
C=C1C(=O)N[C@H](C)C(=O)N[C@@H](CC(C)C)C(=O)N[C@@H](C(=O)O)[C@H](C)C(=O)N[C@@H](C)C(=O)N[C@@H](/C=C/C(C)=C/[C@H](C)[C@H](Cc2ccccc2)OC)[C@H](C)C(=O)N[C@@H](C(=O)O)CCC(=O)N1C (A[Adda][d(γGlu)][NMeDha][dA]L[dAsp(3S-Me)]-OH; lactam N-7),0.003,1,0.0003
CC(=O)N[C@@H](/C=C/C(C)=C/c1ccc(-c2ccccc2)cc1)[C@H](C)C(=O)N[C@H](C)C(=O)O,> 100,,
